PMC6838683, “Discovery of Human Signaling Systems: Pairing Peptides to G Protein-Coupled Receptors” (Cell, 2019)
Residues, ends and D or L forms follow the SMILES beside them. No end group written: not given here.

T1: GPR139 (Homo sapiens, UniProt Q6DWJ6)
T1 construct: hIL-2Ra signal peptide (N); expressed in transfected cells
T1 sequence (Q6DWJ6 2-353 limits assumed): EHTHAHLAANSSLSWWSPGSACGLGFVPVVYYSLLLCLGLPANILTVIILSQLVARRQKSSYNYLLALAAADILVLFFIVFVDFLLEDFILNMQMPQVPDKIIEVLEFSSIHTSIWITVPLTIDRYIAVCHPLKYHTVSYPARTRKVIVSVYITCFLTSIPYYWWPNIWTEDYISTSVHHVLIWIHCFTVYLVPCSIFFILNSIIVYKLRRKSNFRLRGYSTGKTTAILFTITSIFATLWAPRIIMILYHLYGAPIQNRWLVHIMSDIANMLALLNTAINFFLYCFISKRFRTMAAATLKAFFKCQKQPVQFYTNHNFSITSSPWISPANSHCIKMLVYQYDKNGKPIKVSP

T2: GPR1 (Homo sapiens, UniProt P46091)
T2 sequence (P46091 1-355): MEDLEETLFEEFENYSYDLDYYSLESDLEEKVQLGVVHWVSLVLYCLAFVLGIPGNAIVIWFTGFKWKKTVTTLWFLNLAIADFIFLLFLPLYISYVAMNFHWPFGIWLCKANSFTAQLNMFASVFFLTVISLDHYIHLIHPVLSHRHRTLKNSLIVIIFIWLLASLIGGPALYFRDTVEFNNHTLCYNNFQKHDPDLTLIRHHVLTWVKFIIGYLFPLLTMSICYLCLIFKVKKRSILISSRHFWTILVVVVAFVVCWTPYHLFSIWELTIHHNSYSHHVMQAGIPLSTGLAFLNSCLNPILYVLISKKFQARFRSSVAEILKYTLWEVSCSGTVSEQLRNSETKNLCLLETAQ

T3: bombesin receptor 3 (human) (UniProt P32247)
T3 sequence: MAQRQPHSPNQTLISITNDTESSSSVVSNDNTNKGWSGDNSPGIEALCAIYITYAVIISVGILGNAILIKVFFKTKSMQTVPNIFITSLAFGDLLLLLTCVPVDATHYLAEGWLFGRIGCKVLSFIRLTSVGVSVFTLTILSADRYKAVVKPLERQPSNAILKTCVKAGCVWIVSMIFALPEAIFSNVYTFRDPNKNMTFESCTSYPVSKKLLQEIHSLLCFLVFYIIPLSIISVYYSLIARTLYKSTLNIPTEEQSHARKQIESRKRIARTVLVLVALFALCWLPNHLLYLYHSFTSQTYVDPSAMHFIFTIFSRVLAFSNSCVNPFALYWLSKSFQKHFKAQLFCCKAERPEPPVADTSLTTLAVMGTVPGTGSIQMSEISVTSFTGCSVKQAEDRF


Columns and labels:
GPR139 [1] = target: T1, GPR139; experiment: IP1 accumulation; format: cell-based; settings: mean, SEM and n, read-out: pEC50, IP1 (converted)
Description: Supplement mmc7.xlsx, sheet "Peptide validation data" | column: Emax; pEC50

GPR139 [2] = target: T1, GPR139; experiment: Repeat of proposed literature pairing (mass redistribution and/or internalization); format: cell-based; settings: GPR139; mean, SEM and n; read-out: pEC50, DMR (peak) (converted)
Description: DMR assays provide a single integrated readout of ligand-dependent cellular response, utilizing an optical biosensor in specialized microplates to detect wavelength shifts of reflected light as it passes through the biosensor and the lower portion of the cell (∼150-200 nm). As a signal pathway agnostic approach, DMR assays are well-suited to the study of GPCRs ([Fang et al., 2008], [Schröder et al., 2011]). The mass redistribution response (Δ picometer (pm)) likely reflects a number of intracellular events, including cytoskeletal rearrangement, protein trafficking and receptor internalization. Orphan receptor-expressing cells were gently washed twice with assay buffer (HBSS with 1 mM CaCl2, 1 mM MgCl2, 20 mM HEPES, 0.01% pluronic F-68, pH 7.4) containing 0.1% DMSO and cells were equilibrated for 90 min at 22°C in the EPIC Benchtop (BT) System (Corning) to establish a stable DMR signal. After 3-5 min baseline recordings, peptides (10 μM) were added in duplicate wells using an electronic 384-channel Viaflo pipette (Integra Biosciences, Switzerland) and DMR responses were measured for 60 min at 22°C. 100 nM norepinephrine was included as an internal assay control to assess the cellular DMR response via endogenously-expressed adrenoceptors in the TREx 293 cells. Real-time data were processed using the BT to column converter MS-Excel macro (Corning) and analyzed in GraphPad Prism 7.0. DMR recordings in peptide screening experiments were buffer and solvent corrected and the area under the curve (AUC) was quantified. For subsequent validation experiments, peptides were diluted in assay buffer containing 0.1% DMSO and DMR assays were performed as above. […] Data represent mean ± standard error of the mean (SEM) from at least 3 biologically independent experiments.
A TR-FRET real-time internalization assay was used to examine peptide-dependent changes in orphan receptor localization as described previously ([Foster and Bräuner-Osborne, 2018]). Surface-expressed SNAP-tagged receptors were labeled with a cell-impermeable luminescent terbium cryptate (100 nM SNAP Lumi4-Tb; Cisbio, France) for 1 hr at 37°C. Cells were washed to remove excess terbium and incubated with fluorescein-O-acetic acid (100 μM; Sigma Aldrich) for 5 min at 37°C. Peptides were added as for DMR assays, and internalization responses were recorded for 60 min at 37°C using an EnVision 2104 Multimode plate reader (PerkinElmer). 100 nM GLP-1 was used as a positive control for SNAP-GLP1R internalization. Real-time internalization responses were calculated based on TR-FRET (excitation 340 nm; emission 520 nm and 615 nm), and were expressed as the ratio between donor (terbium) and acceptor (fluorescein) emission. For peptide screening analysis (both DMR and internalization assays), we calculated the area under the curve from the real-time traces. […] Validation experiments for receptor internalization were performed as above. Internalization data was processed in MS-Excel and area under the curve was used to generate concentration-response curves using GraphPad Prism 7.0. Data represent mean ± standard error of the mean (SEM) from at least 3 biologically independent experiments.

GPR1 [3] = target: T2, GPR1; experiment: β-arrestin recruitment (PathHunter); format: cell-based; settings: for Emax, PathHunter (fold over basal) / pEC50, PathHunter (fold over basal): GPR1, mean, SEM and n
Procedure: PathHunter eXpress Assays (DiscoverX) were performed in 384-well format according to the manufacturer’s recommendations. GPR1 cells were incubated with peptides for 90 min and luminescence measured using an EnSpire 2300 Multimode plate reader (PerkinElmer).

GPR1 [4] = target: T2, GPR1; experiment: Dynamic mass redistribution (DMR), validation; format: cell-based; set-up: host or cells: HTLA cells (HEK293-derived)
Description: (§1) Supplement mmc7.xlsx, sheet "Peptide validation data" | column: Comment

GPR1 [5] = target: T2, GPR1; experiment: Real-time receptor internalization, validation; format: cell-based; set-up: host or cells: HTLA cells (HEK293-derived)
Description: as §1

GPR1 [6] = target: T2, GPR1; experiment: β-arrestin recruitment (Tango), validation; format: cell-based; set-up: host or cells: HTLA cells (HEK293-derived)
human GPCRs = test system: human GPCRs; set-up: method as in Guide to Pharmacology database; settings: receptor gasr_human (CCKBR, P32239); max reported value; ref Guide to Pharmacology database; cited from earlier work
Description: Supplement mmc1.xlsx, sheet "HumanGPCRLigands" | column: pKi_value; pKd_value; pEC50_value; pIC50_value

NPFF2 = experiment: β-arrestin recruitment (Tango), known peptide receptors; format: cell-based, human; settings: endogenous ligand(s) included in peptide library
Description: Supplement mmc6.xlsx, sheet "Peptide GPCR controls" | column: Confirmed?

[7] = target: T3, bombesin receptor 3 (human)

Row | Molecule | Emax, PathHunter (fold over basal) (GPR1 [3]) | pEC50, PathHunter (fold over basal) (GPR1 [3]) | Comment on response, DMR (AUC); Emax and pEC50 n.d. (GPR1 [4]) | Comment on response, Internalization (AUC); Emax and pEC50 n.d. (GPR1 [5]) | Emax, Tango (fold over basal) (GPR1 [6]; GPR1, mean, SEM and n) | other results
1 | CSCC[C@H](NC(=O)[C@H](CO)NC(=O)[C@H](Cc1ccc(O)cc1)NC(=O)[C@@H](N)CO)C(=O)N[C@@H](CCC(=O)O)C(=O)N[C@@H](Cc1cnc[nH]1)C(=O)N[C@@H](Cc1ccccc1)C(=O)N[C@@H](CCCNC(=N)N)C(=O)N[C@@H](Cc1c[nH]c2ccccc12)C(=O)NCC(=O)N[C@@H](CCCCN)C(=O)N1CCC[C@H]1C(=O)N[C@H](C(=O)NCC(=O)N[C@@H](CCCCN)C(=O)N[C@@H](CCCCN)C(=O)N[C@@H](CCCNC(=N)N)C(=O)N[C@@H](CCCNC(=N)N)C(=O)N1CCC[C@H]1C(=O)N[C@H](C(=O)N[C@@H](CCCCN)C(=O)N[C@H](C(=O)N[C@@H](Cc1ccc(O)cc1)C(=O)N1CCC[C@H]1C(=O)N[C@@H](CC(N)=O)C(=O)NCC(=O)N[C@@H](C)C(=O)N[C@@H](CCC(=O)O)C(=O)N[C@@H](CC(=O)O)C(=O)N[C@@H](CCC(=O)O)C(=O)N[C@@H](CO)C(=O)N[C@@H](C)C(=O)N[C@@H](CCC(=O)O)C(=O)N[C@@H](C)C(=O)N[C@@H](Cc1ccccc1)C(=O)N1CCC[C@H]1C(=O)N[C@@H](CC(C)C)C(=O)N[C@@H](CCC(=O)O)C(=O)N[C@@H](Cc1ccccc1)C(=O)O)C(C)C)C(C)C)C(C)C [Corticotropin, ACTH] (H-SYSMEHFRWGKPVGKKRRPVKVYPNGAEDESAEAFPLEF-OH) | – | – | – | – | – | EC50 (GPR139 [1]): 1.15 µM; EC50 (GPR139 [2]): 0.0661 µM
2 | CSCC[C@H](NC(=O)[C@H](Cc1c[nH]c2ccccc12)NC(=O)CNC(=O)[C@H](Cc1ccc(O)cc1)NC(=O)[C@H](C)NC(=O)[C@H](CCC(=O)O)NC(=O)[C@H](CCC(=O)O)NC(=O)[C@H](CCC(=O)O)NC(=O)[C@H](CCC(=O)O)NC(=O)[C@H](CCC(=O)O)NC(=O)[C@H](CC(C)C)NC(=O)[C@H](Cc1c[nH]c2ccccc12)NC(=O)[C@@H]1CCCN1C(=O)CNC(=O)[C@@H](N)CCC(N)=O)C(=O)N[C@@H](CC(=O)O)C(=O)N[C@@H](Cc1ccccc1)C(N)=O [Peptide 118, Gastrin-17, reference compound] | 3.5 fold over basal | 5.24 | No response; known CCK receptor agonist | No response; known CCK receptor agonist | 9.8 fold over basal | EC50 (GPR1 [3]; PathHunter eXpress GPR1 cells, 90 min, luminescence, mean ± SEM of 3-4 independent experiments in triplicate, read-out: pEC50, β-arrestin recruitment (PathHunter), GPR1 (converted)): 6.31 µM; EC50 (GPR1 [6]; HTLA cells transiently transfected, overnight stimulation, luciferase, mean ± SEM of 3-4 independent experiments in triplicate, read-out: pEC50, β-arrestin recruitment (Tango), GPR1 (converted)): > 10 µM; EC50 (GPR1 [6]; pEC50, Tango (fold over basal), GPR1, mean, SEM and n): 102 µM
3 | KAPSGRMSIVKNLQNLDPSHRISDRDYMGWMDF [Peptide 194, cholecystokinin (CCK-33), reference compound] | 5.7 fold over basal | 8.01 | No response; Known CCK receptor agonist | No response; Known CCK receptor agonist | 15.0 fold over basal | pIC50_value (human GPCRs): 8.8; pEC50, Tango (fold over basal) (GPR1 [6]; GPR1, mean, SEM and n): 5.28
4 | KRSFSGFGSPLDRLSAGSVDHK [Processed Osteocrin_(-2-19)] | 8.0 fold over basal | 6.18 | No response | No response | 14.4 fold over basal | pEC50, Tango (fold over basal) (GPR1 [6]; GPR1, mean, SEM and n): 5.60
5 | Neuropeptide RFRP-1 (MPHSFANLPLRF-NH2) | – | – | – | – | – | Confirmed? (confirmation of b-arrestin recruitment) (NPFF2): No
6 | Neuropeptide SF (SQAFLFQPQRF-NH2) | – | – | – | – | – | Confirmed? (confirmation of b-arrestin recruitment) (NPFF2): No
7 | GNLWATGHFM [neuromedin B] | – | – | – | – | – | pEC50 of neuromedin B responses in G (q/11) signaling assays (IP1 generation) [7]: 6.39 pEC50; pEC50 of neuromedin B responses in mass redistribution [7]: 7.43 pEC50
